# Measured values taken from patent US12522602B2, “Derivatives having 2,3-dihydro-1H-indene or 2,3-dihydrobenzofuran moiety or pharmaceutically acceptable salt thereof and pharmaceutical compositions comprising the same” (YUHAN CORPORATION, priority 2019, dated 2026).
# Tested on: GM1 production in Jurkat cells
# Assay: cells
# Type: cell-based
# Details: Homo sapiens, Jurkat, 72 h
row,SMILES,IC50
1,"CCCOc1cccc(-c2cc3c(cc2OC)C(NC(=O)O[C@@H]2CN4CCC2CC4)C(C)(C)C3)c1 (stereo partly drawn) [Example 340, (S)-quinuclidin-3-yl (6-methoxy-2,2-dimethyl-5-(3-propoxyphenyl)-2,3-dihydro-1H-inden-1-yl)carbamate]",43.8 nM
2,"COc1cc2c(cc1-c1cccc(OC(C)C)c1)CC(C)(C)C2NC(=O)O[C@@H]1CN2CCC1CC2 (stereo partly drawn) [Example 341, (S)-quinuclidin-3-yl (5-(3-isopropoxyphenyl)-6-methoxy-2,2-dimethyl-2,3-dihydro-1H-inden-1-yl)carbamate]",61.9 nM
3,"CCCCOc1cccc(-c2cc3c(cc2OC)C(NC(=O)O[C@@H]2CN4CCC2CC4)C(C)(C)C3)c1 (stereo partly drawn) [Example 342, (S)-quinuclidin-3-yl (5-(3-butoxyphenyl)-6-methoxy-2,2-dimethyl-2,3-dihydro-1H-inden-1-yl)carbamate]",21.6 nM
4,"COc1cc2c(cc1-c1cccc(OCC(C)C)c1)CC(C)(C)C2NC(=O)O[C@@H]1CN2CCC1CC2 (stereo partly drawn) [Example 343, (S)-quinuclidin-3-yl (5-(3-isobutoxyphenyl)-6-methoxy-2,2-dimethyl-2,3-dihydro-1H-inden-1-yl)carbamate]",45.7 nM
5,"COc1ccc(OC)c(-c2cc3c(cc2OC)C(NC(=O)O[C@@H]2CN4CCC2CC4)C(C)(C)C3)c1 (stereo partly drawn) [Example 344, (S)-quinuclidin-3-yl (5-(2,5-dimethoxyphenyl)-6-methoxy-2,2-dimethyl-2,3-dihydro-1H-inden-1-yl)carbamate]",51 nM
6,"COc1cc(OC)cc(-c2cc3c(cc2OC)C(NC(=O)O[C@@H]2CN4CCC2CC4)C(C)(C)C3)c1 (stereo partly drawn) [Example 345, (S)-quinuclidin-3-yl (5-(3,5-dimethoxyphenyl)-6-methoxy-2,2-dimethyl-2,3-dihydro-1H-inden-1-yl)carbamate]",45.7 nM
7,"COc1ccc(-c2cc3c(cc2OC)C(NC(=O)O[C@@H]2CN4CCC2CC4)C(C)(C)C3)c(Cl)c1 (stereo partly drawn) [Example 346, (S)-quinuclidin-3-yl (5-(2-chloro-4-methoxyphenyl)-6-methoxy-2,2-dimethyl-2,3-dihydro-1H-inden-1-yl)carbamate]",38.3 nM
8,"CCOc1ccc(-c2cc3c(cc2OC)C(NC(=O)O[C@@H]2CN4CCC2CC4)C(C)(C)C3)cc1F (stereo partly drawn) [Example 347, (S)-quinuclidin-3-yl (5-(4-ethoxy-3-fluorophenyl)-6-methoxy-2,2-dimethyl-2,3-dihydro-1H-inden-1-yl)carbamate]",46.8 nM
9,"COc1cc2c(cc1-c1cc(C)c(OC(C)C)c(C)c1)CC(C)(C)C2NC(=O)O[C@@H]1CN2CCC1CC2 (stereo partly drawn) [Example 348, (S)-quinuclidin-3-yl (5-(4-isopropoxy-3,5-dimethylphenyl)-6-methoxy-2,2-dimethyl-2,3-dihydro-1H-inden-1-yl)carbamate]",44.1 nM
10,"CCc1ccc(-c2cc3c(cc2F)C(NC(=O)O[C@@H]2CN4CCC2CC4)C(C)(C)C3)cc1 (stereo partly drawn) [Example 349, (S)-quinuclidin-3-yl (5-(4-ethylphenyl)-6-fluoro-2,2-dimethyl-2,3-dihydro-1H-inden-1-yl)carbamate]",10.3 nM
11,"CCCc1ccc(-c2cc3c(cc2F)C(NC(=O)O[C@@H]2CN4CCC2CC4)C(C)(C)C3)cc1 (stereo partly drawn) [Example 350, (S)-quinuclidin-3-yl (6-fluoro-2,2-dimethyl-5-(4-propylphenyl)-2,3-dihydro-1H-inden-1-yl)carbamate]",4.5 nM
12,"CC(C)c1ccc(-c2cc3c(cc2F)C(NC(=O)O[C@@H]2CN4CCC2CC4)C(C)(C)C3)cc1 (stereo partly drawn) [Example 351, (S)-quinuclidin-3-yl (6-fluoro-5-(4-isopropylphenyl)-2,2-dimethyl-2,3-dihydro-1H-inden-1-yl)carbamate]",7.4 nM
13,"CC(C)Cc1ccc(-c2cc3c(cc2F)C(NC(=O)O[C@@H]2CN4CCC2CC4)C(C)(C)C3)cc1 (stereo partly drawn) [Example 352, (S)-quinuclidin-3-yl (6-fluoro-5-(4-isobutylphenyl)-2,2-dimethyl-2,3-dihydro-1H-inden-1-yl)carbamate]",5.7 nM
14,"CC(C)(C)c1ccc(-c2cc3c(cc2F)C(NC(=O)O[C@@H]2CN4CCC2CC4)C(C)(C)C3)cc1 (stereo partly drawn) [Example 353, (S)-quinuclidin-3-yl (5-(4-(tert-butyl)phenyl)-6-fluoro-2,2-dimethyl-2,3-dihydro-1H-inden-1-yl)carbamate]",12.7 nM
15,"CC1(C)Cc2cc(-c3ccc(C4CC4)cc3)c(F)cc2C1NC(=O)O[C@@H]1CN2CCC1CC2 (stereo partly drawn) [Example 354, (S)-quinuclidin-3-yl (5-(4-cyclopropylphenyl)-6-fluoro-2,2-dimethyl-2,3-dihydro-1H-inden-1-yl)carbamate]",5.9 nM
16,"COc1ccc(-c2cc3c(cc2F)C(NC(=O)O[C@@H]2CN4CCC2CC4)C(C)(C)C3)cc1 (stereo partly drawn) [Example 355, (S)-quinuclidin-3-yl (6-fluoro-5-(4-methoxyphenyl)-2,2-dimethyl-2,3-dihydro-1H-inden-1-yl)carbamate]",62.8 nM
17,"CCOc1ccc(-c2cc3c(cc2F)C(NC(=O)O[C@@H]2CN4CCC2CC4)C(C)(C)C3)cc1 (stereo partly drawn) [Example 356, (S)-quinuclidin-3-yl (5-(4-ethoxyphenyl)-6-fluoro-2,2-dimethyl-2,3-dihydro-1H-inden-1-yl)carbamate]",21.6 nM

row,SMILES,IC50
1,"CCCOc1ccc(-c2cc3c(cc2F)C(NC(=O)O[C@@H]2CN4CCC2CC4)C(C)(C)C3)cc1 (stereo partly drawn) [Example 357, (S)-quinuclidin-3-yl (6-fluoro-2,2-dimethyl-5-(4-propoxyphenyl)-2,3-dihydro-1H-inden-1-yl)carbamate]",5.3 nM
2,"CC(C)Oc1ccc(-c2cc3c(cc2F)C(NC(=O)O[C@@H]2CN4CCC2CC4)C(C)(C)C3)cc1 (stereo partly drawn) [Example 358, (S)-quinuclidin-3-yl (6-fluoro-5-(4-isopropoxyphenyl)-2,2-dimethyl-2,3-dihydro-1H-inden-1-yl)carbamate]",7.7 nM
3,"CC(C)Oc1ccc(-c2cc3c(cc2F)C(NC(=O)O[C@@H]2CN4CCC2CC4)C(C)(C)C3)cc1Cl (stereo partly drawn) [Example 359, (S)-quinuclidin-3-yl (5-(3-chloro-4-isopropoxyphenyl)-6-fluoro-2,2-dimethyl-2,3-dihydro-1H-inden-1-yl)carbamate]",33.1 nM
4,"COc1ccc(-c2cc3c(cc2F)C(NC(=O)O[C@@H]2CN4CCC2CC4)C(C)(C)C3)c(F)c1 (stereo partly drawn) [Example 360, (S)-quinuclidin-3-yl (6-fluoro-5-(2-fluoro-4-methoxyphenyl)-2,2-dimethyl-2,3-dihydro-1H-inden-1-yl)carbamate]",39 nM
5,"CCCCOc1ccc(-c2cc3c(cc2F)C(NC(=O)O[C@@H]2CN4CCC2CC4)C(C)(C)C3)cc1 (stereo partly drawn) [Example 361, (S)-quinuclidin-3-yl (5-(4-butoxyphenyl)-6-fluoro-2,2-dimethyl-2,3-dihydro-1H-inden-1-yl)carbamate]",2.1 nM
6,"CC(C)COc1ccc(-c2cc3c(cc2F)C(NC(=O)O[C@@H]2CN4CCC2CC4)C(C)(C)C3)cc1 (stereo partly drawn) [Example 362, (S)-quinuclidin-3-yl (6-fluoro-5-(4-isobutoxyphenyl)-2,2-dimethyl-2,3-dihydro-1H-inden-1-yl)carbamate]",2.5 nM
7,"CC1(C)Cc2cc(-c3ccc(OCC4CC4)nc3)c(F)cc2C1NC(=O)O[C@@H]1CN2CCC1CC2 (stereo partly drawn) [Example 363, (S)-quinuclidin-3-yl (5-(6-(cyclopropylmethoxy)pyridin-3-yl)-6-fluoro-2,2-dimethyl-2,3-dihydro-1H-inden-1-yl)carbamate]",8.7 nM
8,"COc1ccc(Cl)cc1-c1cc2c(cc1F)C(NC(=O)O[C@@H]1CN3CCC1CC3)C(C)(C)C2 (stereo partly drawn) [Example 364, (S)-quinuclidin-3-yl (5-(5-chloro-2-methoxyphenyl)-6-fluoro-2,2-dimethyl-2,3-dihydro-1H-inden-1-yl)carbamate]",17.2 nM
9,"CCCCc1ccc(-c2cc3c(cc2F)C(NC(=O)O[C@@H]2CN4CCC2CC4)C(C)(C)C3)cc1 (stereo partly drawn) [Example 365, (S)-quinuclidin-3-yl (5-(4-butylphenyl)-6-fluoro-2,2-dimethyl-2,3-dihydro-1H-inden-1-yl)carbamate]",2.4 nM
10,"COc1c(C)cc(-c2cc3c(cc2F)C(NC(=O)O[C@@H]2CN4CCC2CC4)C(C)(C)C3)cc1C (stereo partly drawn) [Example 366, (S)-quinuclidin-3-yl (6-fluoro-5-(4-methoxy-3,5-dimethylphenyl)-2,2-dimethyl-2,3-dihydro-1H-inden-1-yl)carbamate]",79.4 nM
11,"CCOc1c(C)cc(-c2cc3c(cc2F)C(NC(=O)O[C@@H]2CN4CCC2CC4)C(C)(C)C3)cc1C (stereo partly drawn) [Example 367, (S)-quinuclidin-3-yl (5-(4-ethoxy-3,5-dimethylphenyl)-6-fluoro-2,2-dimethyl-2,3-dihydro-1H-inden-1-yl)carbamate]",68.2 nM
12,"CCCCOc1c(C)cc(-c2cc3c(cc2F)C(NC(=O)O[C@@H]2CN4CCC2CC4)C(C)(C)C3)cc1C (stereo partly drawn) [Example 368, (S)-quinuclidin-3-yl (5-(4-butoxy-3,5-dimethylphenyl)-6-fluoro-2,2-dimethyl-2,3-dihydro-1H-inden-1-yl)carbamate]",22.9 nM
13,"COc1cc(-c2cc3c(cc2F)C(NC(=O)O[C@@H]2CN4CCC2CC4)C(C)(C)C3)ccn1 (stereo partly drawn) [Example 369, (S)-quinuclidin-3-yl (6-fluoro-5-(2-methoxypyridin-4-yl)-2,2-dimethyl-2,3-dihydro-1H-inden-1-yl)carbamate]",172 nM
14,"CC1(C)Cc2cc(-c3cccc(F)c3)c(F)cc2C1NC(=O)O[C@@H]1CN2CCC1CC2 (stereo partly drawn) [Example 370, (S)-quinuclidin-3-yl (6-fluoro-5-(3-fluorophenyl)-2,2-dimethyl-2,3-dihydro-1H-inden-1-yl)carbamate]",39.3 nM
15,"CCc1cccc(-c2cc3c(cc2F)C(NC(=O)O[C@@H]2CN4CCC2CC4)C(C)(C)C3)c1 (stereo partly drawn) [Example 371, (S)-quinuclidin-3-yl (5-(3-ethylphenyl)-6-fluoro-2,2-dimethyl-2,3-dihydro-1H-inden-1-yl)carbamate]",24.8 nM
16,"CC(C)Cc1cccc(-c2cc3c(cc2F)C(NC(=O)O[C@@H]2CN4CCC2CC4)C(C)(C)C3)c1 (stereo partly drawn) [Example 372, (S)-quinuclidin-3-yl (6-fluoro-5-(3-isobutylphenyl)-2,2-dimethyl-2,3-dihydro-1H-inden-1-yl)carbamate]",46.2 nM
17,"CC(C)c1cccc(-c2cc3c(cc2F)C(NC(=O)O[C@@H]2CN4CCC2CC4)C(C)(C)C3)c1 (stereo partly drawn) [Example 373, (S)-quinuclidin-3-yl (6-fluoro-5-(3-isopropylphenyl)-2,2-dimethyl-2,3-dihydro-1H-inden-1-yl)carbamate]",31.2 nM
